{
  "source": "patent US20130143968A1",
  "about": "“Methods and compositions for the treatment of diabetes and related symtoms” (Emmaus Medical, Inc., priority 2011, published 2013)",
  "key": {"[1]": {"assay": "HA1C lowering in a person ingesting L-glutamine", "format": "in vivo", "details": "one person, baseline 6.9%; 30 g per day as an aqueous solution, ingested; after three months", "experimental": "The person ingested 30 g of L-glutamine per day as an aqueous solution. After three months of L-glutamine administration, the person's Hb A1C level was measured at 6.1%."}, "[2]": {"assay": "Triglyceride lowering in a person ingesting L-glutamine", "format": "in vivo", "details": "one person, baseline 500 mg/dL; 30 g per day as an aqueous solution, ingested; after three months", "experimental": "The person ingested 30 g of L-glutamine per day as an aqueous solution. After three months of L-glutamine administration, the person's triglyceride blood level was measured at 150 mg/dL."}},
  "data": [
    {"smiles": "NC(=O)CC[C@H](N)C(=O)O", "note": "[L-glutamine]", "values": [
      {"measurement": "glycolated hemoglobin level (Hb A1C level)", "setting": "[1]", "value": 6.1, "unit": "%"},
      {"measurement": "triglyceride blood level", "setting": "[2]", "value": 150, "unit": "mg/dL"}
    ]}
  ]
}
